Results: US9375435B2, “Use of a DNA expression construct” (MOLOGEN AG, priority 2010, dated 2016)

Key:
[1] = test system: A375 melanoma xenotransplanted-tumours; test: Chemo-sensitization of xenotransplanted tumours, intratumoral jet injection; assay type: in vivo; conditions: twice 150 μg DNA construct, twice 0.5 mg/kg vindesine where indicated
Experimental: A) In vitro chemo-sensitization assay results. B) Chemo-sensitization of A375 melanoma xenotransplanted tumors.
The intratumoral jet injection was performed using twice 150 μg of the dumbbell-shaped DNA construct and where indicated additionally twice 0.5 mg/kg tumour vindesine.
On the y-axis is the median of the relative tumour volume shown for the indicated days after transfer (x-axis).

[2] = test system: A375 melanoma cells; conditions: vindesine 12.8 μg per ml
From the text: In further experiments the effect of TNF-α expression on cell vitality and tumour volume was investigated.

Question: How did the “median of the relative tumour volume” value [1] turn out when CC[C@]1(O)C[C@@H]2CN(CCc3c([nH]c4ccccc34)[C@@](C(=O)OC)(c3cc4c(cc3OC)N(C)[C@H]3[C@@](O)(C(N)=O)[C@H](O)[C@]5(CC)C=CCN6CC[C@]43[C@@H]65)C2)C1 [vindesine] was run?
Answer: reduces the average tumour volume

Question: What about the relative cell vitality [2] of the same compound?
Answer: 0.6
